Experimental findings from PubChem BioAssay AID1918944 (Molecular Pharmacology Branch, DTP, NCI, 2023) are described below.

The assay concerns 786-0 complex spheroid viability. In words: Anticancer human tumor 786-0 cell line growth inhibition.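 On all read-outs here: spheroids exposed to agents for seven days before readout.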 The following applies: for viability, T/C: stronger effect = lower value. An outline of the steps:
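Multicellular complex spheroids of tumor cells with human endothelial cells (HUVEC) and mesenchymal stem cells; the LSD1 inhibitor iadademstat was combined with standard-of-care or investigational agents. Top concentration at or near clinical Cmax, half-log dilutions; final DMSO ≤0.25%.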

Setting [1] is: curve of first compound, second compound 0.1 µM.
The mark [2] stands for this setting: curve of first compound, second compound 0.316 µM.
Setting [3] is: curve of first compound, second compound 1 µM.
Setting [4] is: curve of first compound, second compound 3.16 µM.
[5] abbreviates: curve of first compound, second compound 10 µM.
[6] abbreviates: second compound 0.1 µM, first compound 0.000316 µM.
Setting [7] is: second compound 0.1 µM, first compound 0.001 µM.
[8] abbreviates: second compound 0.1 µM, first compound 0.00316 µM.
The mark [9] stands for this setting: second compound 0.1 µM, first compound 0.01 µM.
Where [10] appears, read: second compound 0.1 µM, first compound 0.0316 µM.
Where [11] appears, read: second compound 0.1 µM, first compound 0.1 µM.
[12] abbreviates: second compound 0.316 µM, first compound 0.000316 µM.
[13] abbreviates: second compound 0.316 µM, first compound 0.001 µM.
The mark [14] stands for this setting: second compound 0.316 µM, first compound 0.00316 µM.
Setting [15] is: second compound 0.316 µM, first compound 0.01 µM.
Where [16] appears, read: second compound 0.316 µM, first compound 0.0316 µM.
Where [17] appears, read: second compound 0.316 µM, first compound 0.1 µM.
[18] abbreviates: second compound 1 µM, first compound 0.000316 µM.
[19] abbreviates: second compound 1 µM, first compound 0.001 µM.
Setting [20] is: second compound 1 µM, first compound 0.00316 µM.
[21] abbreviates: second compound 1 µM, first compound 0.01 µM.
Setting [22] is: second compound 1 µM, first compound 0.0316 µM.
[23] abbreviates: second compound 1 µM, first compound 0.1 µM.
The mark [24] stands for this setting: second compound 3.16 µM, first compound 0.000316 µM.
The mark [25] stands for this setting: second compound 3.16 µM, first compound 0.001 µM.
Setting [26] is: second compound 3.16 µM, first compound 0.00316 µM.
[27] abbreviates: second compound 3.16 µM, first compound 0.01 µM.
Setting [28] is: second compound 3.16 µM, first compound 0.0316 µM.
The mark [29] stands for this setting: second compound 3.16 µM, first compound 0.1 µM.
Setting [30] is: second compound 10 µM, first compound 0.000316 µM.
[31] abbreviates: second compound 10 µM, first compound 0.001 µM.
The mark [32] stands for this setting: second compound 10 µM, first compound 0.00316 µM.
Where [33] appears, read: second compound 10 µM, first compound 0.01 µM.
The mark [34] stands for this setting: second compound 10 µM, first compound 0.0316 µM.
The mark [35] stands for this setting: second compound 10 µM, first compound 0.1 µM.

pIC50: −log10 of the molar value. “And” between values parts separate entries of the source, which are not always exact repeats. Identical values can stand only once.

On to `Nc1ncn(C2CC(O)C(CO)S2)c(=O)n1` (centres undefined) + NC1CCC(NC2CC2c2ccccc2)CC1, for which the pIC50 reads like this: under setting [1], 6.70; under setting [2], 6.68; under setting [3], 6.70; under setting [4], 6.76; under setting [5], 6.85. The viability, T/C was 127% (second compound 0.1 µM, first compound 0.000949 µM); 127% (second compound 0.1 µM, first compound 0.003 µM); 130% (second compound 0.1 µM, first compound 0.00949 µM); 111% (second compound 0.1 µM, first compound 0.03 µM); 78.3% (second compound 0.1 µM, first compound 0.0949 µM); 34.1% (second compound 0.1 µM, first compound 0.3 µM). Further, the viability, T/C by setting is: (second compound 0.316 µM, first compound 0.000949 µM) 135%; (second compound 0.316 µM, first compound 0.003 µM) 131%; (second compound 0.316 µM, first compound 0.00949 µM) 130%; (second compound 0.316 µM, first compound 0.03 µM) 120%; (second compound 0.316 µM, first compound 0.0949 µM) 77.1%; (second compound 0.316 µM, first compound 0.3 µM) 37%. Besides, the viability, T/C was 122% (second compound 1 µM, first compound 0.000949 µM); 123% (second compound 1 µM, first compound 0.003 µM); 128% (second compound 1 µM, first compound 0.00949 µM); 115% (second compound 1 µM, first compound 0.03 µM); 74.5% (second compound 1 µM, first compound 0.0949 µM); 36.9% (second compound 1 µM, first compound 0.3 µM). In addition, the viability, T/C is, setting by setting: (second compound 3.16 µM, first compound 0.000949 µM) 117%; (second compound 3.16 µM, first compound 0.003 µM) 126%; (second compound 3.16 µM, first compound 0.00949 µM) 126%; (second compound 3.16 µM, first compound 0.03 µM) 108%; (second compound 3.16 µM, first compound 0.0949 µM) 70.2%; (second compound 3.16 µM, first compound 0.3 µM) 32.2%. Besides, the viability, T/C was 93.6% (second compound 10 µM, first compound 0.000949 µM); 91.8% (second compound 10 µM, first compound 0.003 µM); 104% (second compound 10 µM, first compound 0.00949 µM); 98.6% (second compound 10 µM, first compound 0.03 µM); 61.9% (second compound 10 µM, first compound 0.0949 µM); 27% (second compound 10 µM, first compound 0.3 µM).
In the case of `Nc1ncn(C2CC(O)C(CO)S2)c(=O)n1` (centres undefined), the viability, T/C (compound 0.000949 µM) is 110% and 99.7%; the viability, T/C (compound 0.003 µM) is 109% and 112%; the viability, T/C (compound 0.00949 µM) was 117% and 112%; the viability, T/C (compound 0.03 µM) is 103% and 102%; the viability, T/C (compound 0.0949 µM) was 67.7% and 83.2%; the viability, T/C (compound 0.3 µM) was 30.5% and 47.9%. Further, the pIC50 (curve of compound) is 6.79 and 6.55.
As to `CC(C)c1c(-c2ccccc2)nc2c(C#N)c[nH]n2c1=O`, the viability, T/C is 105% and 103% (compound 0.0316 µM); 108% and 101% (compound 0.1 µM); 99% and 105% (compound 0.316 µM); 102% and 105% (compound 1 µM); 104% and 110% (compound 3.16 µM); 102% and 103% (compound 10 µM). Where the note is “curve of compound”, the pIC50 is below 5.00.
Regarding `Cn1ncnc1C1c2n[nH]c(=O)c3cc(F)cc(c23)NC1c1ccc(F)cc1` (centres undefined) + NC1CC1c1ccc(-c2cccc(O)c2)cc1, the pIC50 under setting [1] was below 7.00; the pIC50 under setting [2] was below 7.00; the pIC50 under setting [3] was below 7.00; the pIC50 under setting [4] is below 7.00; the pIC50 under setting [5] was below 7.00. In addition, the viability, T/C was 95.4% under setting [6]; 94.4% under setting [7]; 95% under setting [8]; 91.9% under setting [9]; 92.4% under setting [10]; 89.3% under setting [11]. Further, the viability, T/C under setting [12] is 102%; the viability, T/C under setting [13] is 102%; the viability, T/C under setting [14] is 101%; the viability, T/C under setting [15] is 91%; the viability, T/C under setting [16] was 94.3%; the viability, T/C under setting [17] was 95.9%. Also, the viability, T/C under setting [18] was 93.3%; the viability, T/C under setting [19] is 94.5%; the viability, T/C under setting [20] is 90.6%; the viability, T/C under setting [21] was 86.9%; the viability, T/C under setting [22] was 81.5%; the viability, T/C under setting [23] is 85%. Further, the viability, T/C reads like this: under setting [24], 88.4%; under setting [25], 92.1%; under setting [26], 90.9%; under setting [27], 87.8%; under setting [28], 85.2%; under setting [29], 76.4%. Moreover, the viability, T/C is 80.7% under setting [30]; 87% under setting [31]; 84.3% under setting [32]; 83.2% under setting [33]; 79.8% under setting [34]; 74.5% under setting [35].
As for `NC1CC1c1ccc(-c2cccc(O)c2)cc1` (centres undefined), the viability, T/C is, setting by setting: (compound 0.316 µM) 110% [middle of 25 runs]; (compound 10 µM) 89.2% [middle of 25 runs]. Also, for the setting “compound alone, run of 12/07/2021”, the pIC50 is below 5.00.
As to `CC(C)CC(NC(=O)C(Cc1ccccc1)NC(=O)c1cnccn1)B(O)O` (centres undefined) + NC1CCC(NC2CC2c2ccccc2)CC1, the pIC50 is 8.55 under setting [1]; 8.59 under setting [2]; 8.59 under setting [3]; 8.65 under setting [4]; 8.71 under setting [5]. Further, the viability, T/C reads like this: under setting [6], 122%; under setting [7], 114%; under setting [8], 42.6%; under setting [9], 2.11%; under setting [10], 0.17%; under setting [11], 0.14%. Moreover, the viability, T/C is 115% under setting [12]; 110% under setting [13]; 36.6% under setting [14]; 3.06% under setting [15]; 0.46% under setting [16]; 0.16% under setting [17]. The viability, T/C was 117% under setting [18]; 113% under setting [19]; 35.9% under setting [20]; 6.05% under setting [21]; 0.96% under setting [22]; 0.23% under setting [23]. For the same compound, the viability, T/C runs as follows: under setting [24], 106%; under setting [25], 102%; under setting [26], 28.2%; under setting [27], 5.87%; under setting [28], 0.76%; under setting [29], 0.29%. For the same compound, the viability, T/C under setting [30] is 92.1%; the viability, T/C under setting [31] is 86.1%; the viability, T/C under setting [32] was 24%; the viability, T/C under setting [33] was 3.66%; the viability, T/C under setting [34] was 1.18%; the viability, T/C under setting [35] is 0.23%.
For `O=C(C=Cc1cccc(S(=O)(=O)Nc2ccccc2)c1)NO`, the viability, T/C (compound 0.00949 µM) is 96.4% and 90.1%; the viability, T/C (compound 0.03 µM) was 94.9% and 96.3%; the viability, T/C (compound 0.0949 µM) was 98.5% and 102%; the viability, T/C (compound 0.3 µM) is 93.5% and 98.6%; the viability, T/C (compound 0.949 µM) was 48.6% and 73.1%; the viability, T/C (compound 3 µM) is 6.1% and 9.6%. In addition, the pIC50 (curve of compound) was 6.04 and 5.84.
